# Experimental data published in patent publication US9133449B2, “Mutant pyrrolysyl-tRNA synthetase, and method for production of protein having non-natural amino acid integrated therein by using the same” (priority 2007, dated 2015).
# Entries after “also recorded” stand apart in the source; their conditions may differ.
# Key:
# [1] = target: M. mazei PylRS (wild-type) (Methanosarcina mazei, UniProt Q8PWY1); type: biochemical; conditions: 37 degrees Celsius 1 h; 0.5 M Lys; 100 mM Ac-Lys; 1 mM Boc-Lys; 1 mM Aloc-Lys; 10 mM Nic-Lys; 7 mM Nma-Lys; 3.5 mM Z-Lys; 1 mM pyrrolysine
# M. mazei PylRS (wild-type), sequence (Q8PWY1 whole entry E444G, looked up): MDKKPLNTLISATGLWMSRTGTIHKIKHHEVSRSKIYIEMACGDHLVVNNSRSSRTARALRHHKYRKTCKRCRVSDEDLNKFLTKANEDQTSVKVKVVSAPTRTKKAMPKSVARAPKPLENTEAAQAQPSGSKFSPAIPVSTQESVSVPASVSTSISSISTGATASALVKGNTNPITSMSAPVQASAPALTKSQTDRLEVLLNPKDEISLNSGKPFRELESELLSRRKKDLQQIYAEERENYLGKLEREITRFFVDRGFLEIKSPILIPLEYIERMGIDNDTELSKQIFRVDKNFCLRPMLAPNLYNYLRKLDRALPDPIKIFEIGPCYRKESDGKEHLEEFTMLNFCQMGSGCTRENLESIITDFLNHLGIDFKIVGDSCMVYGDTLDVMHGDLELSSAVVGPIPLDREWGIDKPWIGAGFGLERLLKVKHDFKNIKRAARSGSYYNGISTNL
# [2] = test system: GST gene with amber codon (TAG) at the 25th from N terminus, E. coli BL21 (DE3); type: cell-based; conditions: for expression of 28-kDa GST protein: mutant PylRS (Y384F) and tRNA^Pyl, 4 mM amino acid; for incorporation into a protein with wild-type PylRS: E. coli cells
# Text: In order to confirm whether amber suppression (amber mutation suppression) occurs in E. coli cells, the glutathione S-transferase (GST) gene whose tyrosine codon at the 25th from N terminus was mutated to the amber codon (TAG) was cloned into a pET system plasmid. On the other hand, the wild-type and a variety of mutant PylRS genes, as well as tRNA^Pyl genes were cloned into a pACYX system plasmid (see FIG. 6). These two expression vectors were transformed to E. coli BL21 (DE3) to statically culture overnight on LB agar medium including kanamycin and ampicillin. […] Incubation was conducted overnight to induce expression before E. coli cells were harvested to detect expressed GST using SDS-PAGE. […] (SEQ ID NO: 17) (m/z=1327.72 Da) (see FIG. 10).
# The same plasmid pTK2-1 as Example 1 was used for expressing PylRS mutant with double amino acid substitutions of Y306A and Y384F and tRNA^Pyl in E. coli cells. Incorporation of a lysine derivative into GST having amber codon at 25th from its N-terminus using this plasmid was performed according to the same method as Example 1. Moreover, specific incorporation of AzZLys [purchased from Shinsei Chemical Company Ltd. (Osaka)] into the amber site in GST using the same plasmid was also performed according to the same method as Example 1. Subsequently, crude extract obtained from E. coli cells in which the GST amber gene was expressed was separated with SDS-PAGE and stained. […] Furthermore, purification of GST was performed with the same method as Example 1.
# [3] = test system: GRB2 amber gene, HEK c-18 cell
# Text: (§1) For expressing PylRS (Y306A, Y384F) mutant and tRNA^P1 in HEK c-18 cell, the system disclosed in the above-mentioned Non-Patent Document 7 was used. Likewise, the mutant gene into which the amber codon was incorporated at the cording region of lac Z gene and GRB2 gene, and the expression system thereof, as disclosed in the above-mentioned Non-Patent Document 7, were used.
# GST = conditions: FITC-PP3; ca. 37 degrees Celsius for 1 hour (not at ca. 4 degrees Celsius overnight)
# Protocol: A conjugate of fluorophore and triarylphosphine, and the purified full length GST were linked by Staudinger-Bertozzi reaction. As a conjugate, the conjugate with FITC (hereinafter referred to as FITC-PP3) (purchased from Shinsei Chemical Company Ltd.) was used. […] Linkage reaction was performed under two types of reactive conditions, i.e., at ca. 37 degrees Celsius for 1 hour (lhr) and at ca. 4 degrees Celsius overnight (O/N). Subsequently, these GST were separated by SDS-PAGE to detect fluorescence with UV light. […] As to the Staudinger-Bertozzi reaction, see the above-mentioned Non-Patent Documents 5, 6, etc.
# [4] = test system: lacZ amber gene, HEK c-18 cell
# Text: as §1
# First, in the animal cells, optimal concentration of AzLys for site-specific incorporation of AzLys into the protein was determined. In media containing 0, 0.01, 0.025, 0.05, 0.1, 0.25 and 0.5 mM of AzZLys, LacZ protein was expressed from the lacZ amber gene to determine the level of expression (relative value) of LacZ with coloring reaction by LacZ. […] In FIG. 17, WT represents the level of expression (relative value) of wild-type (WT) lacZ without any amber codon in the coding region.
structure (smiles),measurement,setting,value
"CC(=O)NCCCC[C@H](N)C(=O)O [Ac-Lys, N^ε-acetyl-L-lysine]",activation of amino acid / esterification of tRNA^Pyl by wild-type PylRS,[1],esterified
"CC(C)(C)OC(=O)N[C@@H](CCCCN)C(=O)O [Boc-Lys, tert-butyloxycarbonyl-lysine]",expression of 28-kDa GST protein,[2],expressed
same,incorporation into a protein with wild-type PylRS,[2],could not efficiently be incorporated
same,activation of amino acid / esterification of tRNA^Pyl by wild-type PylRS,[1],"activated at a concentration of 1 mM, as efficiently as pyrrolysine"
"[N-]=[N+]=Nc1ccc(C[C@H](N)C(=O)O)cc1 [AzF, para-azide-phenylalanine]",Grb2 modified with fluorescence,"[3]; AzFRS system, AzFRS also modified with fluorescence concurrently",modified with fluorescence
"CNc1ccccc1C(=O)NCCCC[C@H](N)C(=O)O [Nma-Lys, N^ε-(N-methyl-anthraniloyl)-L-lysine]",activation of amino acid / esterification of tRNA^Pyl by wild-type PylRS,[1],esterified
"[N-]=[N+]=Nc1ccccc1COC(=O)NCCCC[C@H](N)C(=O)O [AzZLys, N^ε-Ortho-Azide-Benzyloxycarbonyl-Lysine]",expression of the full length GST,"[2]; PylRS mutant Y306A and Y384F and tRNA^Pyl, 1 mM AzZLys",detected merely in the case of the presence of 1 mM AzZLys
same,Grb2 protein labeled with fluorescence,"[3]; PylRS (Y306A, Y384F), tRNA^Pyl, FITC-PP3","detected merely in the case of aaRS (+), Grb2 (Am), tRNA (+) and a.a. (+)"
same,fluorescence-modified GST,GST,detected merely in the case of the reactive condition at ca. 37 degrees Celsius for 1 hour
same,suppression efficiency (LacZ expression relative to wild-type lacZ),"[4]; PylRS (Y306A, Y384F) and tRNA^Pyl, 0.05 mM AzZLys",approximately 30 % of WT
same,concentration at which most efficiently incorporated into the amber site of lacZ,"[4]; tested 0, 0.01, 0.025, 0.05, 0.1, 0.25 and 0.5 mM",0.05 mM
"C[C@@H]1CC=N[C@H]1C(=O)NCCCC[C@H](N)C(=O)O [pyrrolysine, N^6-[(2R,3R)-3-methyl-3,4-dihydro-2H-pyrrole-2-ylcarbonyl]-L-lysine]",activation of amino acid / esterification of tRNA^Pyl by wild-type PylRS,[1],activates
"C=CCOC(=O)N[C@@H](CCCCN)C(=O)O [Aloc-Lys, allyloxycarbonyl-lysine]",expression of 28-kDa GST protein,[2],expressed
same,activation of amino acid / esterification of tRNA^Pyl by wild-type PylRS,[1],"activated at a concentration of 1 mM, as efficiently as pyrrolysine"
"N[C@@H](CCCCNC(=O)OCc1ccccc1)C(=O)O [Z-Lys, N^ε-benzyloxycarbonyl-L-lysine]",production of full length GST protein,"[2]; double mutant PylRS (Y384F/Y306A) and tRNA^Pyl, 5 mM Z-Lys",produced
same,incorporation into a protein with wild-type PylRS,[2],cannot be incorporated into a protein
same,activation of amino acid / esterification of tRNA^Pyl by wild-type PylRS,[1],merely weakly activated; also recorded: esterified
